Seven compounds from patent publication US20090156620A1, “[4-(6-FLUORO-7-METHYLAMINO-2,4-DIOXO-1,4-DIHYDRO-2H-QUINAZOLIN-3-YL)-PHENYL]-5-CHLORO-THIOPHEN-2-YL-SULFONYLUREA SALTS, FORMS AND METHODS RELATED THERETO” (Portola Pharmaceuticals, Inc., priority 2007, published 2009) can be followed below.

Values joined by “and” are separate entries in the source; they are usually repeats but may differ in a detail not shown here. Equal entries are not always repeated. Where two headings read alike, the source gives them in different places.

Series [1] can be described thus: solid form stability on storage at elevated temperature/humidity, by XRPD. Type of series: physicochemical. To be noted: for Stability: further changes / Stability: XRPD; for Stability: storage at 40° C./75% RH, days as in the value. Here is the method:
To 20 mg of [4-(6-fluoro-7-methylamino-2,4-dioxo-1,4-dihydro-2H-quinazolin-3-yl)-phenyl]-5-chloro-thiophen-2-yl-sulfonylurea in 3 mL of the various solvents, was added 1.1 eq. of the base in 1 mL solvent. The mixture was shaken for 2 hours and the solutions were left to evaporate down to half their volume to try to precipitate out the salt. […] Oils/emulsions and opaque liquids were left to maturate at 50° C./ambient in an 8 hour cycles for several weeks. […] Solid samples (crystalline and amorphous) were then filtered, dried and then analyzed to judge their purity, crystallinity and stability. Solids were analysed by ^1H NMR to confirm salt formation and analyzed by ion chromatography and TGA to obtain the stoichiometry of the salt.

The nature of series [2]: gravimetric vapour sorption (GVS). To be noted: for GVS: Total weight change 0-90% RH: 25° C.; for GVS: XRPD post GVS: wrapped cells read: shows new form / matches stability samples / shows no change. Type of series: physicochemical. As for the experimental part:
Sorption isotherms were obtained using a Hiden IGASorp moisture sorption analyser, controlled by CFRSorp software. The sample temperature was maintained at 25° C. by a Huber re-circulating water bath. The humidity was controlled by mixing streams of dry and wet nitrogen, with a total flow rate of 250 ml.min^−1. […] (typical room conditions). A moisture sorption isotherm was performed as outlined below (2 scans giving 1 complete cycle). […] The software uses a least squares minimisation procedure together with a model of the mass relaxation, to predict an asymptotic value. […] The minimum equilibration time was set to 1 hour and the maximum to 4 hours. The sample was recovered after completion of the isotherm and re-analysed by XRPD.

The conditions of series [3]: for Aqueous solubility**: aqueous thermodynamic solubility, 25° C., 24 hours, expressed as free base equivalents, 100 mg scale-up samples.
Method: The suspension was then filtered through a glass fibre C filter into a 96 well plate. […] Quantitation was by HPLC with reference to a standard solution of approximately 0.1 mg.ml^−1. in DMSO. Different volumes of the standard, diluted and undiluted sample solutions were injected.
If there was sufficient solid in the filter plate, the XRPD pattern was collected.
The mark [4] stands for this setting: after a further 10 days at 60° C./75% RH.
Where [5] appears, read: a further 4 days at 60° C./75% RH (figure legend).
Setting [6] is: storage, time not stated (figure legend).

In the case of “[4-(6-fluoro-7-methylamino-2,4-dioxo-1,4-dihydro-2H-quinazolin-3-yl)-phenyl]-5-chloro-thiophen-2-yl-sulfonylurea calcium salt [Calcium acetate]”, the “stability by XRPD” value in series [1] (3 days at 40° C./75% RH) is recorded as “remains stable”. Also, the “Stability: further changes” value in series [1] (setting [4]) is “No changes”. The Stability entry in series [1] was “No changes after 3 days”. Besides, in series [1] (setting [5]), the “stability by XRPD” value was “remains stable”. Further, in series [2], the “GVS: Total weight change 0-90% RH” value is 13 wt %, mostly 80-90% RH, and the “GVS: XRPD post GVS” value is “XRPD post GVS matches”.

In the case of `CNc1cc2[nH]c(=O)n(-c3ccc(NC(=O)NS(=O)(=O)c4ccc(Cl)s4)cc3)c(=O)c2cc1F.[Na]` [Sodium Ethoxide, [4-(6-fluoro-7-methylamino-2,4-dioxo-1,4-dihydro-2H-quinazolin-3-yl)-phenyl]-5-chloro-thiophen-2-yl-sulfonylurea sodium salt], the “Stability: further changes” value in series [1] (after 10 days at 40° C./75% RH) is “at 40° C./75% RH (no”. Besides, in series [1] (sodium salt), the Stability entry is “Some changes after 2 days”. For the same compound, in series [2], the “GVS: Total weight change 0-90% RH” value is recorded as 8.8 wt %, little hysteresis, and the “GVS: XRPD post GVS” value is on record as “XRPD post GVS shows new”. Besides, the “Aqueous solubility**” value in series [3] worked out at 7700 µg/mL.

Regarding `CNc1cc2[nH]c(=O)n(-c3ccc(NC(=O)NS(=O)(=O)c4ccc(Cl)s4)cc3)c(=O)c2cc1F.[K]` [Potassium hydroxide, [4-(6-fluoro-7-methylamino-2,4-dioxo-1,4-dihydro-2H-quinazolin-3-yl)-phenyl]-5-chloro-thiophen-2-yl-sulfonylurea potassium salt], the “stability with respect to 40° C./75% RH by XRPD” value in series [1] was “converts to an amorphous phase”. Further, the “Aqueous solubility**” value in series [3] came to 2700 µg/mL.

With `CNc1cc2[nH]c(=O)n(-c3ccc(NC(=O)NS(=O)(=O)c4ccc(Cl)s4)cc3)c(=O)c2cc1F.[K]` [form C, [4-(6-fluoro-7-methylamino-2,4-dioxo-1,4-dihydro-2H-quinazolin-3-yl)-phenyl]-5-chloro-thiophen-2-yl-sulfonylurea potassium salt], in series [2], the “XRPD after the GVS experiment” value was “reduced in crystallinity”. Moreover, in series [3] (pH of the suspension in the solubility measurement, potassium salt), the pH is 8.7 and 8.8. Besides, the “Thermodynamic solubility in water” value in series [3] (water) came to 4500 µg/mL.

`CNc1cc2[nH]c(=O)n(-c3ccc(NC(=O)NS(=O)(=O)c4ccc(Cl)s4)cc3)c(=O)c2cc1F.N` [ammonium salt (form A), [4-(6-fluoro-7-methylamino-2,4-dioxo-1,4-dihydro-2H-quinazolin-3-yl)-phenyl]-5-chloro-thiophen-2-yl-sulfonylurea ammonium salt]: the “stability with respect to 40° C./75% RH by XRPD” value in series [1] (setting [6]) is “improvements in crystallinity”.

“[4-(6-fluoro-7-methylamino-2,4-dioxo-1,4-dihydro-2H-quinazolin-3-yl)-phenyl]-5-chloro-thiophen-2-yl-sulfonylurea tromethamine salt”: the “stability by XRPD” value in series [1] (3 days at 40° C./75% RH) was “some subtle changes”. Moreover, the “Stability: further changes” value in series [1] (setting [4]) is on record as “at 40° C./75% RH but no”. For the same compound, the Stability entry in series [1] is reported as “Some changes after 3 days”. In addition, the “stability by XRPD” value in series [1] (setting [5]) was “no further changes”. For the same compound, in series [2], the “GVS: Total weight change 0-90% RH” value is recorded as 4.1 wt %, little hysteresis, and the “GVS: XRPD post GVS” value is “XRPD post GVS matches”.

In the case of `CNc1cc2[nH]c(=O)n(-c3ccc(NC(=O)NS(=O)(=O)c4ccc(Cl)s4)cc3)c(=O)c2cc1F.[Na]` [Sodium hydroxide, [4-(6-fluoro-7-methylamino-2,4-dioxo-1,4-dihydro-2H-quinazolin-3-yl)-phenyl]-5-chloro-thiophen-2-yl-sulfonylurea sodium salt], in series [1] (sodium salt), the Stability result was “Amorphous after 3 days at”. For the same compound, the “stability with respect to 40° C./75% RH by XRPD” value in series [1] (setting [6]) is “converts to an amorphous phase”.
